Measured values published in ChEMBL document CHEMBL1125312, “Highly potent, orally active diester macrocyclic human renin inhibitors” (J Med Chem, 1992).

What was measured:
Rattus norvegicus [1] = assay: Compound was evaluated for the percentage of feces excretion of radioactivity, by male Sprague-Dawley rats after oral administration of compound dose (1 mg/kg) at 0-24 hr; assay type: ADME, organism-based; settings: in vivo
Rattus norvegicus [2] = assay: Compound was evaluated for the percentage of feces excretion of radioactivity, by male Sprague-Dawley rats after oral administration of compound dose (1 mg/kg) at 24-48 hr; assay type: ADME, organism-based; settings: in vivo
Rattus norvegicus [3] = assay: Compound was evaluated for the percentage of feces excretion of radioactivity, by male Sprague-Dawley rats after intravenous administration of compound dose (1 mg/kg) at 0-24 hr; assay type: ADME, organism-based; settings: in vivo
Rattus norvegicus [4] = assay: Compound was evaluated for the percentage of feces excretion of radioactivity, by male Sprague-Dawley rats after intravenous administration of compound dose (1 mg/kg) at 24-48 hr; assay type: ADME, organism-based; settings: in vivo
Rattus norvegicus [5] = assay: Compound was evaluated for the percentage of urine excretion of radioactivity, by male Sprague-Dawley rats after oral administration of compound dose (1 mg/kg) at 0-24 hr; assay type: ADME, organism-based; settings: in vivo
Rattus norvegicus [6] = assay: Compound was evaluated for the percentage of urine excretion of radioactivity, by male Sprague-Dawley rats after oral administration of compound dose (1 mg/kg) at 24-48 hr; assay type: ADME, organism-based; settings: in vivo
Rattus norvegicus [7] = assay: Compound was evaluated for the percentage of urine excretion of radioactivity, by male Sprague-Dawley rats after oral administration of compound dose (1 mg/kg) at 48-72 hr; assay type: ADME, organism-based; settings: in vivo
[8] = Cumulative dose excreted after intraduodenal administration at 0-0.5 hours in rats; assay type: ADME, organism-based; settings: rat, in vivo
[9] = Cumulative dose excreted after intraduodenal administration at 0.5-1.0 hours in rats; assay type: ADME, organism-based; settings: rat, in vivo
[10] = Cumulative dose excreted after intraduodenal administration at 1.0-1.5 hours in rats; assay type: ADME, organism-based; settings: rat, in vivo
[11] = Cumulative dose excreted after intraduodenal administration at 1.5-2.0 hours in rats; assay type: ADME, organism-based; settings: rat, in vivo
[12] = Cumulative dose excreted after intraduodenal administration at 2-3 hours in rats; assay type: ADME, organism-based; settings: rat, in vivo
Rattus norvegicus [13] = assay: Cumulative dose excreted after intraduodenal administration at 4-6 hours in rats; assay type: ADME, organism-based; settings: in vivo, other
[14] = Cumulative dose excreted after intraduodenal administration at 6-8 hours in rats; assay type: ADME, organism-based; settings: rat, in vivo
Rattus norvegicus [15] = assay: Cumulative dose excreted after intraduodenal administration at 8-24 hours in rats; assay type: ADME, organism-based; settings: in vivo, other
Rattus norvegicus [16] = assay: Cumulative dose excreted after intravenous administration at 0-0.5 hours in rats; assay type: ADME, organism-based; settings: in vivo
[17] = Cumulative dose excreted after intravenous administration at 0.5-1 hours in rats; assay type: ADME, organism-based; settings: rat, in vivo
[18] = Cumulative dose excreted after intravenous administration at 1.0-1.5 hours in rats; assay type: ADME, organism-based; settings: rat, in vivo
Rattus norvegicus [19] = assay: Cumulative dose excreted after intravenous administration at 1.5-2 hours in rats; assay type: ADME, organism-based; settings: in vivo
Rattus norvegicus [20] = assay: Cumulative dose excreted after intravenous administration at 2-3 hours in rats; assay type: ADME, organism-based; settings: in vivo
Rattus norvegicus [21] = assay: Cumulative dose excreted after intravenous administration at 3-4 hours in rats; assay type: ADME, organism-based; settings: in vivo
Rattus norvegicus [22] = assay: Cumulative dose excreted after intravenous administration at 4-6 hours in rats; assay type: ADME, organism-based; settings: in vivo
Rattus norvegicus [23] = assay: Cumulative dose excreted after intravenous administration at 6-8 hours in rats; assay type: ADME, organism-based; settings: in vivo
Rattus norvegicus [24] = assay: Cumulative dose excreted after intravenous administration at 8-24 hours in rats; assay type: ADME, organism-based; settings: in vivo
Rattus norvegicus [25] = assay: Compound was evaluated for the percentage of feces excretion of radioactivity, by male Sprague-Dawley rats after oral administration of compound dose (1 mg/kg) at 48-72 hr; assay type: ADME, organism-based; settings: in vivo
Rattus norvegicus [26] = assay: Compound was evaluated for the percentage of urine excretion of radioactivity, by male Sprague-Dawley rats after intravenous administration of compound dose (1 mg/kg) at 0-24 hr; assay type: ADME, organism-based; settings: in vivo
Rattus norvegicus [27] = assay: Compound was evaluated for the percentage of urine excretion of radioactivity, by male Sprague-Dawley rats after intravenous administration of compound dose (1 mg/kg) at 24-48 hr; assay type: ADME, organism-based; settings: in vivo
Renin = molecular target: T1, Renin (Homo sapiens, UniProt P00797); assay: Inhibitory activity against human renin inhibition (at pH 7.4)
T1 sequence (P00797 whole entry): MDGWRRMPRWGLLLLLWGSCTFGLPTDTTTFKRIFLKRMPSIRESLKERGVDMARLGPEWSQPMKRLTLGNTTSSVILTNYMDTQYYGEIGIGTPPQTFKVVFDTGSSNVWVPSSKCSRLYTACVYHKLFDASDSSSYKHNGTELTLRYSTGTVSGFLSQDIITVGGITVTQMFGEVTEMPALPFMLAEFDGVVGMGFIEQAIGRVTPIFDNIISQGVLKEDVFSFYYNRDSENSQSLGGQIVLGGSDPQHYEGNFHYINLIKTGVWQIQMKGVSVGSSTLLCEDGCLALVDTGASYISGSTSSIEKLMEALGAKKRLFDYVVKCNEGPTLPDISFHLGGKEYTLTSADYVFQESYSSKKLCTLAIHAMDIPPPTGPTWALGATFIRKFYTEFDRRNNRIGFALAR

[28] = Cumulative dose excreted after intraduodenal administration at 3-4 hours in rats; assay type: ADME, organism-based; settings: rat, in vivo

Compound: O=C1CCC[C@H](CN2CCOCC2)OC(=O)[C@H](O)[C@H](CC2CCCCC2)NC(=O)[C@@H](NC(=O)[C@H](Cc2ccccc2)NC2CN3CCC2CC3)CO1 (some centres undefined)
- Dose excreted (Rattus norvegicus [1]): 81.7%
- Dose excreted (Rattus norvegicus [2]): 3.3%
- Dose excreted (Rattus norvegicus [3]): 43.5%
- Dose excreted (Rattus norvegicus [4]): 3.5%
- Dose excreted (Rattus norvegicus [5]): 3.1%
- Dose excreted (Rattus norvegicus [6]): 0.7%
- Dose excreted (Rattus norvegicus [7]): 0.3%
- Dose excreted [8]: 2.4%
- Dose excreted [9]: 3.3%
- Dose excreted [10]: 3.6%
- Dose excreted [11]: 3.9%
- Dose excreted [12]: 4%
- Dose excreted (Rattus norvegicus [13]): 4.3%
- Dose excreted [14]: 4.4%
- Dose excreted (Rattus norvegicus [15]): 4.7%
- Dose excreted (Rattus norvegicus [16]): 35.7%
- Dose excreted [17]: 42.7%
- Dose excreted [18]: 44.6%
- Dose excreted (Rattus norvegicus [19]): 45.5%
- Dose excreted (Rattus norvegicus [20]): 46.4%
- Dose excreted (Rattus norvegicus [21]): 46.9%
- Dose excreted (Rattus norvegicus [22]): 47.5%
- Dose excreted (Rattus norvegicus [23]): 47.9%
- Dose excreted (Rattus norvegicus [24]): 48.7%
- Dose excreted (Rattus norvegicus [25]): 0.2%
- Dose excreted (Rattus norvegicus [26]): 18.5%
- Dose excreted (Rattus norvegicus [27]): 0.7%
- IC50 (Renin): 1.3 nM
- Dose excreted [28]: 4.2%
